{"source": "patent US20250241310A1", "about": "“METHODS AND COMPOSITION FOR CONTROLLING PESTS” (UPL CORPORATION LIMITED, priority 2021, published 2025)", "assay_type_in_all_cases": "in vivo", "key": {"[1]": {"test_system": "fall army worm (Spodoptera frugiperda)", "assay": "Field trial in corn plantation, % control of fall army worm, flupyrimin alone", "experimental": "Trials were carried out in the field to assess efficacy of flupyrimin against fall army worm (Spodoptera frugiperda) in corn plantation. Evaluation was done to check % control of said insects at different dosage for 3, 7, 10, 14 DAA for 1st application and 3, 7, 10, 14, 21, 28, 35, and 42 DAA for 2nd application. The rate of application was 500 lit/ha."}, "[2]": {"test_system": "Corn leafhopper (Dalbulus maidis)", "assay": "Field trial, % control of adult corn leafhopper per plant", "experimental": "Trials were carried out in field to assess efficacy of flupyrimin against Corn leafhopper (Dalbulus maidis). Evaluation was done to check % control of adult insects per plant at different dosage at 3 days after emergence and 7 days after emergence."}, "[3]": {"test_system": "seed corn maggot (Delia platura)", "assay": "Field trial, seed treatment, pest severity of seed corn maggot", "experimental": "Trials were carried out in field to assess efficacy of flupyrimin against seed corn maggot (Delia platura). Seeds were treated with flupyrimin before sowing. Evaluation was done to evaluate pest severity of said insects at different dosage. Soil Texture=fine sandy loam, pH=7, OM %=0.8."}, "[4]": {"test_system": "corn rootworm (Diabrotica virgifera virgifera)", "assay": "Field trial, seed treatment, efficacy against corn rootworm (% control and root damage index)", "conditions": "for Damage Index: scale 1-6, corn roots", "experimental": "Trials were carried out in field to assess efficacy of flupyrimin against corn rootworm (Diabrotica virgifera virgifera). Seeds were treated with flupyrimin before sowing. Evaluation was done to check % control of said insects at different dosage. Soil Texture=clay loam, pH=6.89, OM %=3.29.\nFurther, the damage index (Scale 1-6) at different concentrations was evaluated.\nAssessment of the amount of damage by larval feeding of D. virgifera on corn roots were made by digging out the root system taking a diameter of approximately 25 cm to a depth of 15 cm. The root systems were then washed so that all crown roots were fairly clean. Damage on the root systems was assessed on 10 plants per plot (40 plants per treatment) using a scale as the following: • 1.0=no feeding damage; • 1.5=visible feeding scars present (not illustrated, but similar to a rating of two); • 2.0=up to three roots pruned slightly; • 2.5=more than three roots pruned, but none chewed to within 4 cm of plant; • 3.0=one to three roots chewed to within 4 cm of plant; • 3.5=more than three roots chewed to within 4 cm of plant; • 4.0=one entire node or equivalent number of roots destroyed • 4.5=about 1.5 nodes destroyed • 5.0=two nodes destroyed • 5.5=about 2.5 nodes destroyed • 6.0=three or more nodes completely destroyed (not illustrated, but similar to a rating of five)"}}, "data": [{"smiles": "O=C(/N=c1\\ccccn1Cc1ccc(Cl)nc1)C(F)(F)F", "note": "[Flupyrimin, N-[(E)-1-(6-chloro-3-pyridinylmethyl)pyridin-2 (1H)-ylidene]-2,2,2-trifluoroacetamide]", "values": [{"measurement": "% Control", "setting": "[1]; post 1st application, 150 g a.i./ha, 3 DAA", "value": 27.8, "unit": "%"}, {"measurement": "% Control", "setting": "[1]; post 1st application, 150 g a.i./ha, 7 DAA", "value": 29.1, "unit": "%"}, {"measurement": "% Control", "setting": "[1]; post 1st application, 150 g a.i./ha, 10 DAA", "value": 28.1, "unit": "%"}, {"measurement": "% Control", "setting": "[1]; post 1st application, 150 g a.i./ha, 14 DAA", "value": 24.4, "unit": "%"}, {"measurement": "% Control", "setting": "[1]; post 1st application, 200 g a.i./ha, 3 DAA", "value": 32.8, "unit": "%"}, {"measurement": "% Control", "setting": "[1]; post 1st application, 200 g a.i./ha, 7 DAA", "value": 34.1, "unit": "%"}, {"measurement": "% Control", "setting": "[1]; post 1st application, 200 g a.i./ha, 10 DAA", "value": 33.7, "unit": "%"}, {"measurement": "% Control", "setting": "[1]; post 1st application, 200 g a.i./ha, 14 DAA", "value": 29.5, "unit": "%"}, {"measurement": "% Control", "setting": "[1]; post 1st application, 250 g a.i./ha, 3 DAA", "value": 38.1, "unit": "%"}, {"measurement": "% Control", "setting": "[1]; post 1st application, 250 g a.i./ha, 7 DAA", "value": 40.1, "unit": "%"}, {"measurement": "% Control", "setting": "[1]; post 1st application, 250 g a.i./ha, 10 DAA", "value": 36.7, "unit": "%"}, {"measurement": "% Control", "setting": "[1]; post 1st application, 250 g a.i./ha, 14 DAA", "value": 32.9, "unit": "%"}, {"measurement": "% Control", "setting": "[1]; post 2nd application, 150 g a.i./ha, 3 DAA", "value": 28.3, "unit": "%"}, {"measurement": "% Control", "setting": "[1]; post 2nd application, 150 g a.i./ha, 7 DAA", "value": 30.4, "unit": "%"}, {"measurement": "% Control", "setting": "[1]; post 2nd application, 150 g a.i./ha, 10 DAA", "value": 31.8, "unit": "%"}, {"measurement": "% Control", "setting": "[1]; post 2nd application, 150 g a.i./ha, 14 DAA", "value": 32.6, "unit": "%"}, {"measurement": "% Control", "setting": "[1]; post 2nd application, 150 g a.i./ha, 21 DAA", "value": 29.9, "unit": "%"}, {"measurement": "% Control", "setting": "[1]; post 2nd application, 150 g a.i./ha, 28 DAA", "value": 28.9, "unit": "%"}, {"measurement": "% Control", "setting": "[1]; post 2nd application, 150 g a.i./ha, 35 DAA", "value": 27.3, "unit": "%"}, {"measurement": "% Control", "setting": "[1]; post 2nd application, 150 g a.i./ha, 42 DAA", "value": 27.1, "unit": "%"}, {"measurement": "% Control", "setting": "[1]; post 2nd application, 200 g a.i./ha, 3 DAA", "value": 35.6, "unit": "%"}, {"measurement": "% Control", "setting": "[1]; post 2nd application, 200 g a.i./ha, 7 DAA", "value": 35.3, "unit": "%"}, {"measurement": "% Control", "setting": "[1]; post 2nd application, 200 g a.i./ha, 10 DAA", "value": 36.3, "unit": "%"}, {"measurement": "% Control", "setting": "[1]; post 2nd application, 200 g a.i./ha, 14 DAA", "value": 35.3, "unit": "%"}, {"measurement": "% Control", "setting": "[1]; post 2nd application, 200 g a.i./ha, 21 DAA", "value": 34.5, "unit": "%"}, {"measurement": "% Control", "setting": "[1]; post 2nd application, 200 g a.i./ha, 28 DAA", "value": 34.5, "unit": "%"}, {"measurement": "% Control", "setting": "[1]; post 2nd application, 200 g a.i./ha, 35 DAA", "value": 33.7, "unit": "%"}, {"measurement": "% Control", "setting": "[1]; post 2nd application, 200 g a.i./ha, 42 DAA", "value": 33.3, "unit": "%"}, {"measurement": "% Control", "setting": "[1]; post 2nd application, 250 g a.i./ha, 3 DAA", "value": 41.4, "unit": "%"}, {"measurement": "% Control", "setting": "[1]; post 2nd application, 250 g a.i./ha, 7 DAA", "value": 42.7, "unit": "%"}, {"measurement": "% Control", "setting": "[1]; post 2nd application, 250 g a.i./ha, 10 DAA", "value": 43.7, "unit": "%"}, {"measurement": "% Control", "setting": "[1]; post 2nd application, 250 g a.i./ha, 14 DAA", "value": 44.4, "unit": "%"}, {"measurement": "% Control", "setting": "[1]; post 2nd application, 250 g a.i./ha, 21 DAA", "value": 41.4, "unit": "%"}, {"measurement": "% Control", "setting": "[1]; post 2nd application, 250 g a.i./ha, 28 DAA", "value": 38.8, "unit": "%"}, {"measurement": "% Control", "setting": "[1]; post 2nd application, 250 g a.i./ha, 35 DAA", "value": 38.1, "unit": "%"}, {"measurement": "% Control", "setting": "[1]; post 2nd application, 250 g a.i./ha, 42 DAA", "value": 37.9, "unit": "%"}, {"measurement": "% Control", "setting": "[2]; 100 g ai/100 kg, rate 0.2 Kg-L/ha, 3 DAE", "value": 65, "unit": "%"}, {"measurement": "% Control", "setting": "[2]; 100 g ai/100 kg, rate 0.2 Kg-L/ha, 7 DAE", "value": 50, "unit": "%"}, {"measurement": "% Control", "setting": "[2]; 200 g ai/100 kg, rate 0.4 Kg-L/ha, 3 DAE", "value": 50.91, "unit": "%"}, {"measurement": "% Control", "setting": "[2]; 200 g ai/100 kg, rate 0.4 Kg-L/ha, 7 DAE", "value": 45.83, "unit": "%"}, {"measurement": "% Control", "setting": "[2]; 300 g ai/100 kg, rate 0.6 Kg-L/ha, 3 DAE", "value": 86.93, "unit": "%"}, {"measurement": "% Control", "setting": "[2]; 300 g ai/100 kg, rate 0.6 Kg-L/ha, 7 DAE", "value": 47.02, "unit": "%"}, {"measurement": "% Control", "setting": "[2]; 500 g ai/100 kg, rate 1.0 Kg-L/ha, 3 DAE", "value": 80, "unit": "%"}, {"measurement": "% Control", "setting": "[2]; 500 g ai/100 kg, rate 1.0 Kg-L/ha, 7 DAE", "value": 63.69, "unit": "%"}, {"measurement": "control of corn leafhopper (in words)", "setting": "[2]; summary of Table 4", "value": "good control"}, {"measurement": "Pest severity", "setting": "[3]; 100 g/100 kg of seeds, 14 DP", "value": 0.2}, {"measurement": "Pest severity", "setting": "[3]; 100 g/100 kg of seeds, 28 DP", "value": 4.3}, {"measurement": "Pest severity", "setting": "[3]; 100 g/100 kg of seeds, 35 DP", "value": 4.8}, {"measurement": "Pest severity", "setting": "[3]; 100 g/100 kg of seeds, 42 DP", "value": 5.9}, {"measurement": "Pest severity", "setting": "[3]; 200 g/100 kg of seeds, 14 DP", "value": 0}, {"measurement": "Pest severity", "setting": "[3]; 200 g/100 kg of seeds, 28 DP", "value": 0.7}, {"measurement": "Pest severity", "setting": "[3]; 200 g/100 kg of seeds, 35 DP", "value": 0.9}, {"measurement": "Pest severity", "setting": "[3]; 200 g/100 kg of seeds, 42 DP", "value": 1.8}, {"measurement": "Pest severity", "setting": "[3]; 300 g/100 kg of seeds, 14 DP", "value": 0}, {"measurement": "Pest severity", "setting": "[3]; 300 g/100 kg of seeds, 28 DP", "value": 0.3}, {"measurement": "Pest severity", "setting": "[3]; 300 g/100 kg of seeds, 35 DP", "value": 0.5}, {"measurement": "Pest severity", "setting": "[3]; 300 g/100 kg of seeds, 42 DP", "value": 0.9}, {"measurement": "Pest severity", "setting": "[3]; 400 g/100 kg of seeds, 14 DP", "value": 0}, {"measurement": "Pest severity", "setting": "[3]; 400 g/100 kg of seeds, 28 DP", "value": 0.3}, {"measurement": "Pest severity", "setting": "[3]; 400 g/100 kg of seeds, 35 DP", "value": 0.5}, {"measurement": "Pest severity", "setting": "[3]; 400 g/100 kg of seeds, 42 DP", "value": 1.1}, {"measurement": "Pest severity", "setting": "[3]; 500 g/100 kg of seeds, 14 DP", "value": 0}, {"measurement": "Pest severity", "setting": "[3]; 500 g/100 kg of seeds, 28 DP", "value": 0}, {"measurement": "Pest severity", "setting": "[3]; 500 g/100 kg of seeds, 35 DP", "value": 0}, {"measurement": "Pest severity", "setting": "[3]; 500 g/100 kg of seeds, 42 DP", "value": 0.3}, {"measurement": "efficacy against seed corn maggot (in words)", "setting": "[3]; summary of Table 3", "value": "effective"}, {"measurement": "Damage Index", "setting": "[4]; 100 g/100 kg of seeds", "value": 2.3}, {"measurement": "Damage Index", "setting": "[4]; 200 g/100 kg of seeds", "value": 1.8}, {"measurement": "Damage Index", "setting": "[4]; 300 g/100 kg of seeds", "value": 1.1}, {"measurement": "Damage Index", "setting": "[4]; 400 g/100 kg of seeds", "value": 1}, {"measurement": "Damage Index", "setting": "[4]; 500 g/100 kg of seeds", "value": 1}, {"measurement": "% Control", "setting": "[4]; seed treatment 100 g/100 kg of seeds", "value": 49.39, "unit": "%"}, {"measurement": "% Control", "setting": "[4]; seed treatment 200 g/100 kg of seeds", "value": 70.4, "unit": "%"}, {"measurement": "% Control", "setting": "[4]; seed treatment 300 g/100 kg of seeds", "value": 96.38, "unit": "%"}, {"measurement": "% Control", "setting": "[4]; seed treatment 400 g/100 kg of seeds", "value": 99.36, "unit": "%"}, {"measurement": "% Control", "setting": "[4]; seed treatment 500 g/100 kg of seeds", "value": 100, "unit": "%"}, {"measurement": "insect control against corn rootworm (in words)", "setting": "[4]; summary of Table 1", "value": "good insect control"}, {"measurement": "reduction of root damage (in words)", "setting": "[4]; summary of Table 2, different concentrations", "value": "efficacious in reducing the damage"}]}]}
